Test system: Fisher 344×Brown Norway (FBN) rat
Assay: Treatment of sarcopenia (age-related muscle loss) in FBN hybrid rats
Type: in vivo
Conditions: middle age and/or old FBN hybrid rats; OP administered e.g. orally
Protocol: The Fisher 344×Brown Norway (FBN) rat model has been recommended by the National Institute on Aging (NIA) for age-related research. […] Significant muscle mass loss, a reduction in muscle CSA, and muscle fiber loss are expected in, for example, the quadriceps muscles of the aged rat.
OP is administered, for example orally, to young, middle age, and old FBN hybrid rats.

In the case of L-ornithine phenylacetate [OP], the muscle mass loss is reported as “effective in reducing muscle mass loss”.
